# Results reported in paper PMC9161616, “A first-in-human phase 1/2 study of FGF401 and combination of FGF401 with spartalizumab in patients with hepatocellular carcinoma or biomarker-selected solid tumors” (Journal of Experimental & Clinical Cancer Research : CR, 2022).
# “Also recorded” adds a separate entry of the source.
# Legend:
# [1] = system: patients with HCC or other solid malignancies
# Experimental: FGF401 was administered per oral under fasted condition or with low-fat meal on a continuous once daily (qd) regimen for both FGF401 single agent and in combination with spartalizumab. A 300-mg intravenous infusion of spartalizumab was administered once every three weeks (q3w) and 1 treatment cycle was defined as 21 days. The study treatment was administered until the patient experienced unacceptable toxicity, progressive disease and/or the treatment was discontinued at investigator’s discretion or patient’s withdrawal of consent. Figure 1 summarizes the study design and visit flow.
# The secondary endpoints characterizing safety, efficacy, pharmacokinetics (PK), immunogenicity, and food effect properties of the FGF401 and the combination were based on the assessments on their respectively defined population sets. Adverse events (AEs) that emerged during treatment were monitored throughout the study until 30 days after discontinuation of the single agent and 150 days after discontinuation of the combination. Adverse events were coded using the Medical Dictionary for Regulatory Activities (MedDRA) and assessed as per Common Terminology Criteria for Adverse Events (CTCAE) version 4.03. The clinical laboratory assessments were collected no later than 30 days after the last date of study treatment administration. The grades were classified as low/normal/high when not defined by CTCAE v4.03. Other assessments of vital signs, physical examinations, and electrocardiogram (ECG) parameters were also performed.
# Safety analyses conducted in the safety set constituted summaries for AEs occurring during on-treatment period with number and percentage of patients having at least 1 AE. Summaries presented overview of AEs and deaths (number and percentage of patients who died with any AE, SAE, dose reductions/interruptions, AE leading to discontinuation), SAEs, AEs related to study treatment, AEs leading to treatment discontinuation, dose interruption/adjustment or fatal outcome. Additionally, in combination part, summaries were produced using all treatment-related AEs starting or worsening during the on-treatment or extended safety follow-up periods (within 150 days after the date of last administration of study treatment).
# [2] = system: FGF19-FGFR4 signaling; assay: Blood-based pharmacodynamic biomarkers (C4, total bile acids, FGF19, cholesterol); assay type: in vivo, human
# Experimental: An immunohistochemistry (IHC) assay to detect FGF19 was used retrospectively on remnant samples and the association of FGF19 expression levels with best change in sum of diameters (SOD) for RECIST v1.1 in the single-agent was evaluated. […] FGF19 was quantified using a capture-ELISA assay from R&D System, Cat. nr. DF1900, with a LLOQ of 27.2 pg/mL and ULOQ of 1096.3 pg/mL. C4: 7α-Hydroxy-4-cholesten-3-one was determined using an LC-MS/MS method. The concentration of total bile acids were measured using the colorimetric diazyme’s enzymatic total bile acids assay.
# [3] = system: HCC and gastric cancer cell lines expressing FGFR4, KLB and FGF19; settings: excellent selectivity over non-sensitive tumor models; cited from earlier work
# [4] = system: cell-line derived HCC xenografts and patient-derived HCC xenografts; settings: dose-dependent manner; cited from earlier work
# [5] = single agent, All patients N = 160
# [6] = most patients across the FGF401 dose levels
smiles,measurement,setting,value
"COCCNc1cc(NC(=O)N2CCCc3cc(CN4CCN(C)CC4=O)c(C=O)nc32)ncc1C#N [FGF401, roblitinib]",patients who died on treatment because of existing cancer,[1]; 17 patients of 160,10.6%
same,discontinued treatment because of progressive disease,[1]; 130 of 160 patients,81%
same,patients who died on treatment,[1]; Twenty patients of 160,12.5%
same,patients who died on treatment because of other reasons,"[1]; gastric bleeding, multiple organ dysfunction syndrome, unknown cause",3 patients
same,"AEs leading to FGF401 discontinuation, All grades","[1]; human, in vivo",18 (11.3) n (%)
same,"AEs leading to FGF401 discontinuation, Grade 3 or 4","[1]; human, in vivo",13 (8.1) n (%)
same,"AEs leading to FGF401 discontinuation, Treatment related, All grades","[1]; human, in vivo",12 (7.5) n (%)
same,"AEs leading to FGF401 discontinuation, Treatment related, Grade 3 or 4","[1]; human, in vivo",8 (5.0) n (%)
same,"AEs leading to FGF401 dose adjustment/interruption, All grades","[1]; human, in vivo",80 (50.0) n (%)
same,"AEs leading to FGF401 dose adjustment/interruption, Grade 3 or 4","[1]; human, in vivo",58 (36.3) n (%)
same,"AEs leading to FGF401 dose adjustment/interruption, Treatment related, All grades","[1]; human, in vivo",47 (29.4) n (%)
same,"AEs leading to FGF401 dose adjustment/interruption, Treatment related, Grade 3 or 4","[1]; human, in vivo",34 (21.3) n (%)
same,ALT increased leading to FGF401 discontinuation,"[1]; human, in vivo",3.8%
same,AST increased leading to FGF401 discontinuation,"[1]; human, in vivo",1.9%
same,"Constipation, Grade 3/4","[1]; human, in vivo",0 n (%)
same,"Decreased appetite, Grade 3/4","[1]; human, in vivo",0 n (%)
same,"Edema peripheral, Grade 3/4","[1]; human, in vivo",0 n (%)
same,Grade 3 or 4 AEs suspected to be related to study treatment,"[1]; human, in vivo",31.9%
same,Grade 3 or 4 related ALT elevated,"[1]; human, in vivo",15.0%
same,Grade 3 or 4 related AST increased,"[1]; human, in vivo",18.8%
same,Grade 3 or 4 related diarrhea,"[1]; human, in vivo",5.0%
same,"Nausea, Grade 3/4","[1]; human, in vivo",0 n (%)
same,Primary reason for end of treatment: Adverse event,"[1]; human, in vivo",18 (11.3) n (%)
same,"Pyrexia, Grade 3/4","[1]; human, in vivo",0 n (%)
same,"SAEs, Treatment related, Grade 3 or 4","[1]; human, in vivo",7 (4.4) n (%)
same,blood bilirubin increased leading to FGF401 discontinuation,"[1]; human, in vivo",2.5%
same,dose interruption due to AEs,"[1]; human, in vivo",52.5%
same,dose reduction due to AEs,"[1]; human, in vivo",18.1%
same,patients with a grade 3 or 4 AE,"[1]; human, in vivo",72.5%
same,patients with diarrhea,"[1]; human, in vivo",73.8%
same,patients with dose interruption,"[1]; human, in vivo",60.6%
same,patients with dose reduction,"[1]; human, in vivo",21.3%
same,patients with increased ALT,"[1]; human, in vivo",43.8%
same,patients with increased AST,"[1]; human, in vivo",47.5%
same,Primary reason for end of treatment: Death,[1]; single agent N=160,2 (1.3) n (%)
same,Primary reason for end of treatment: Progressive disease,[1]; single agent N=160,130 (81.3) n (%)
same,"AEs, All grades",[1]; [5],160 (100) n (%)
same,"AEs, Grade 3 or 4",[1]; [5],116 (72.5) n (%)
same,"AEs, Treatment related, All grades",[1]; [5],148 (92.5) n (%)
same,"AEs, Treatment related, Grade 3 or 4",[1]; [5],51 (31.9) n (%)
same,"Fatal SAEs, All grades",[1]; [5],3 (1.9) n (%)
same,"Fatal SAEs, Grade 3 or 4",[1]; [5],3 (1.9) n (%)
same,"Fatal SAEs, Treatment related, All grades",[1]; [5],0 n (%)
same,"Fatal SAEs, Treatment related, Grade 3 or 4",[1]; [5],0 n (%)
same,"SAEs, All grades",[1]; [5],70 (43.8) n (%)
same,"SAEs, Grade 3 or 4",[1]; [5],55 (34.4) n (%)
same,"SAEs, Treatment related, All grades",[1]; [5],8 (5.0) n (%)
same,dose-response analyses with the pharmacodynamic biomarkers,[2]; all doses tested,did not identify any associations; also recorded: without a clear dose response
same,change in C4 level,[2]; [6],Increase; also recorded: treatment-induced elevation
same,change in total bile acid level,[2]; [6],Increase; also recorded: treatment-induced elevation
same,change in circulating FGF19,[2]; single-agent arm,Increase
same,change in total cholesterol,[2]; single-agent arm,decrease
same,growth of cell lines,[3],inhibits growth
same,tumor response in xenografts,[4],robustly induces regression/stasis
